Laboratory results taken from patent US8232243B2, “Tyrosine- and tryptophan-containing peptides as antioxidants” (Max-Planck-Gesellschaft zur Forderung der Wissenschaften …, priority 1999, dated 2012).
No end group written: not given here.

Assays:
Type in all cases: biochemical
[1] = test system: B-phycoerythrin from Porphyrium cruentum; test: peroxy free radical trapping test (protection of B-phycoerythrin from destruction by peroxy free radicals); details: B-phycoerythrin 10 nM, 2,2'-azobis-2-methylpropionamidine 500 μM, 37° C.; peptide 20 nM to 20 μM
Description: The ability of peptides to protect the globular protein B-phycoerythrin from destruction by peroxy free radicals was tested. This was done by oxidizing B-phycoerythrin from Porphyrium cruentum (10 nM) in phosphate-buffered saline solution using 2,2′-azobis-2-methylpropionamidine (500 μM) at 37° C. as source of peroxy free radicals. Destruction of the protein was measured by observing the decrease in the protein fluorescence with increasing incubation time (flash fluorimetry, excitation window 340±50 nm, emission window 572±6 nm) . The results of this experiment for the secretory peptides GnRH (human) and for the synthetic peptides WY, WGGGY, WW and YY are shown in FIG. 1A. The meanings in the individual diagrams are • the control and ⋄ a concentration of 20 nM, ∘ 200 nM, ▾ 2 μM and ∇ 20 μM of the particular peptide (quadruplicate determinations) .
The results are shown in FIG. 2. • means the control, ∘ means a concentration of 200 nM, ▾ means a concentration of 2 μM and ∇ means a concentration of 20 μM of the particular peptide (quadruplicate determinations).
Experiments were carried out to test the antioxidant effect of other substances in the peroxy free radical trapping test described in example 1. The results are shown in FIG. 3 (see FIG. 1A for explanation) .

[2] = test system: native rat brain membranes; test: protection of brain membranes from oxidative damage by ascorbate (lipid peroxidation, chemiluminescence); details: membranes 0.5 mg/ml protein, 50 μM ascorbate, 37° C.; peptide 20 μM and 100 μM
Description: Secretory peptides are able to protect brain membranes from oxidative damage by ascorbate. This was done by oxidizing native rat brain membranes (0.5 mg/ml protein) by adding 50 μM ascorbate at 37° C. Single-photon measurement of the chemiluminescence (as measure of peroxidation reactions occurring) was measured for quantitative determination of the lipid peroxidation as described by Moosmann and Behl (supra). The results for GnRH (human) are shown in FIG. 1C. • means the control and ⋄ a concentration of 20 μM and ▪ a concentration of 100 μM of the particular peptide (duplicate determinations).

human LDL = test: protection of LDL from copper-catalyzed oxidation (conjugated dienes, 234 nm); details: LDL 0.1 mg/ml protein, 10 μM CuSO4, 37° C.; peptide 20 μM and 100 μM
Description: In a further test, the ability of the peptides to protect LDL from copper-catalyzed oxidation was tested. This was done by incubating fresh human LDL (0.1 mg/ml protein) with 10 μM CuSO4 at 37° C. The reaction products of the LDL decomposition (conjugated dienes) were measured by photometry at 234 nm as described by Moosmann and Behl (Proc. Natl. Acad. Sci. USA 96 (1999), 8867). The three curves show the control, a concentration of 20 μM and a concentration of 100 μM of the particular peptide (duplicate determinations).

## LRPG-amide (LRPG-NH2; listed as Homo sapiens) [GnRH 7-10]
[1]
  antioxidant effect in trapping peroxy free radicals (decrease in B-phycoerythrin fluorescence): complete loss of activity

## SYGLRPG-amide (SYGLRPG-NH2; listed as Homo sapiens) [GnRH 4-10]
[1]
  antioxidant effect in trapping peroxy free radicals (decrease in B-phycoerythrin fluorescence): markedly reduced

## WGGY (A synthetic peptide which functions as an antioxidant)
[1]
  antioxidant effect in trapping peroxy free radicals (decrease in B-phycoerythrin fluorescence): Analogous results

## WGY
[1]
  antioxidant effect in trapping peroxy free radicals (decrease in B-phycoerythrin fluorescence): Analogous results

## cyEHWSHDWKPG-amide (N-terminal pyroglutamate, C-terminal amide; listed as Petromyzon marinus) [GnRH (lamprey)]
[1]
  antioxidant effect in trapping peroxy free radicals (decrease in B-phycoerythrin fluorescence): Analogous results

## cyEHWSYGLRPG-amide (N-terminal pyroglutamate, C-terminal amide; listed as Homo Sapiens) [GnRH (human)]
[2]
  antioxidant effect in preventing peroxidation of brain lipids: have antioxidant properties
Human LDL
  antioxidant effect in preventing LDL oxidation: have antioxidant properties
[1]
  antioxidant effect in trapping peroxy free radicals (decrease in B-phycoerythrin fluorescence): have antioxidant properties

## cyEHWSYGWLPG-amide (HELM PEPTIDE1{[Glp].H.W.S.Y.G.W.L.P.G.[am]}$$$$V2.0; SMILES CC(C)C[C@H](NC(=O)[C@H](Cc1c[nH]c2ccccc12)NC(=O)CNC(=O)[C@H](Cc1ccc(O)cc1)NC(=O)[C@H](CO)NC(=O)[C@H](Cc1c[nH]c2ccccc12)NC(=O)[C@H](Cc1c[nH]cn1)NC(=O)[C@@H]1CCC(=O)N1)C(=O)N1CCC[C@H]1C(=O)NCC(N)=O; listed as Oncorhynchus tshawytscha) [GnRH (salmon)]
[1]
  antioxidant effect in trapping peroxy free radicals (decrease in B-phycoerythrin fluorescence): Analogous results
